# Legend:
# Format in all cases: functional, cell-based
# [1] = Cytotoxicity against human KBH5.0 cells by MTT method; conditions: KBH5.0 cell
# [2] = Cytotoxicity against human KB3-1 cells by MTT method; conditions: KB 3-1
# [3] = Cytotoxicity against human KBV1 cells by MTT method; conditions: KB-V1
# P388 [4] = test: Cytotoxicity against mouse P388 cells by MTT method
# P388 [5] = test: cells; conditions: Mus musculus
# [6] = Cytotoxicity against human RPMI8402 cells by MTT method; conditions: RPMI 8402
# [7] = Cytotoxicity against camptothecin-resistant human CPT-K5 cells by MTT method
Compound,IC50 (P388 [5]),IC50 [1],IC50 [2],IC50 [3],IC50 (P388 [4]),IC50 [6],IC50 [7]
CCc1c2c(nc3ccc(OC(=O)N4CCC(N5CCCCC5)CC4)cc13)-c1cc3c(c(=O)n1C2)COC(=O)[C@]3(O)CC [IRINOTECAN],,7400 nM,680 nM,40000 nM,,,
COc1cc2cc(C(=O)NCCN(C)C)c3c4cc5c(cc4ncc3c2cc1OC)OCO5,260 nM,200 nM,27 nM,1400 nM,15 nM,35 nM,630 nM
CC[C@@]1(O)C(=O)OCc2c1cc1n(c2=O)Cc2cc3ccccc3nc2-1 [CAMPTOTHECIN],> 10000 nM,,15 nM,,4 nM,4 nM,
CC[C@@]1(O)C(=O)OCc2c1cc1n(c2=O)Cc2cc3c(CN(C)C)c(O)ccc3nc2-1 [TOPOTECAN],> 10000 nM,,40 nM,440 nM,,210 nM,
COc1cc2cc(CCN)c3c4cc5c(cc4ncc3c2cc1OC)OCO5,180 nM,110 nM,20 nM,500 nM,14 nM,32 nM,200 nM
COc1cc2cc(CC[N+](=O)[O-])c3c4cc5c(cc4ncc3c2cc1OC)OCO5,> 10000 nM,320 nM,150 nM,360 nM,70 nM,60 nM,> 10000 nM
COc1cc2cc(CCN(C)C)c3c4cc5c(cc4ncc3c2cc1OC)OCO5,180 nM,40 nM,21 nM,60 nM,15 nM,20 nM,330 nM
COc1cc2cc(CCCN(C)C)c3c4cc5c(cc4ncc3c2cc1OC)OCO5,200 nM,130 nM,35 nM,400 nM,40 nM,60 nM,290 nM
COc1cc2c(=O)n(CCN(C)C)c3c4cc5c(cc4ncc3c2cc1OC)OCO5,230 nM,,5 nM,5 nM,,,

# The next lines start with results.
IC50 (P388 [5]),Compound,IC50 [1],IC50 [2],IC50 [3],IC50 (P388 [4]),IC50 [6],IC50 [7]
2000 nM,COc1cc2cc(CN(C)C)c3c4cc5c(cc4ncc3c2cc1OC)OCO5,290 nM,60 nM,250 nM,100 nM,100 nM,2700 nM
> 10000 nM,COc1cc2cc(C(N)=O)c3c4cc5c(cc4ncc3c2cc1OC)OCO5,2700 nM,55 nM,400 nM,35 nM,140 nM,> 10000 nM
> 10000 nM,COc1cc2cc(C(=O)N(C)C)c3c4cc5c(cc4ncc3c2cc1OC)OCO5,3600 nM,1200 nM,4000 nM,980 nM,1600 nM,> 10000 nM
350 nM,COc1cc2cc(/C=C/CN(C)C)c3c4cc5c(cc4ncc3c2cc1OC)OCO5,70 nM,30 nM,330 nM,40 nM,35 nM,350 nM
> 10000 nM,CCOC(=O)c1cc2cc(OC)c(OC)cc2c2cnc3cc4c(cc3c12)OCO4,> 10000 nM,> 10000 nM,> 10000 nM,4000 nM,10000 nM,> 10000 nM
10000 nM,COc1cc2cc(/C=C/[N+](=O)[O-])c3c4cc5c(cc4ncc3c2cc1OC)OCO5,420 nM,180 nM,450 nM,180 nM,550 nM,> 10000 nM
10000 nM,COc1cc2cc(C=O)c3c4cc5c(cc4ncc3c2cc1OC)OCO5,290 nM,130 nM,300 nM,120 nM,100 nM,> 10000 nM
300 nM,COc1cc2cc(CN)c3c4cc5c(cc4ncc3c2cc1OC)OCO5,210 nM,30 nM,160 nM,26 nM,120 nM,2100 nM
> 10000 nM,COc1cc2cc(CO)c3c4cc5c(cc4ncc3c2cc1OC)OCO5,400 nM,150 nM,400 nM,60 nM,120 nM,> 10000 nM
> 10000 nM,CNC(=O)c1cc2cc(OC)c(OC)cc2c2cnc3cc4c(cc3c12)OCO4,480 nM,230 nM,420 nM,,280 nM,> 10000 nM

# Reference: ChEMBL document CHEMBL1152123, “11-Substituted 2,3-dimethoxy-8,9-methylenedioxybenzo[i]phenanthridine derivatives as novel topoisomerase I-targeting agents” (Bioorg Med Chem, 2008)
